Our source for the EC50 and Ki values is ChEMBL document CHEMBL1154012, “Synthesis and SAR of novel tricyclic quinoxalinone inhibitors of poly(ADP-ribose)polymerase-1 (PARP-1)” (Bioorg Med Chem Lett, 2009).

The structures appear in SMILES notation.

For experiment [1], the target named is T1, Poly [ADP-ribose] polymerase 1 (Homo sapiens, UniProt P09874).
Description: Inhibition of PARP1 in human C41 cells by DAPI staining-based FITC analysis
The target of experiment [2] is T1, Poly [ADP-ribose] polymerase 1. The source holds these as a separate data set.
Description: Inhibition of PARP1 by microplate scintillation counting

T1 sequence (P09874 whole entry): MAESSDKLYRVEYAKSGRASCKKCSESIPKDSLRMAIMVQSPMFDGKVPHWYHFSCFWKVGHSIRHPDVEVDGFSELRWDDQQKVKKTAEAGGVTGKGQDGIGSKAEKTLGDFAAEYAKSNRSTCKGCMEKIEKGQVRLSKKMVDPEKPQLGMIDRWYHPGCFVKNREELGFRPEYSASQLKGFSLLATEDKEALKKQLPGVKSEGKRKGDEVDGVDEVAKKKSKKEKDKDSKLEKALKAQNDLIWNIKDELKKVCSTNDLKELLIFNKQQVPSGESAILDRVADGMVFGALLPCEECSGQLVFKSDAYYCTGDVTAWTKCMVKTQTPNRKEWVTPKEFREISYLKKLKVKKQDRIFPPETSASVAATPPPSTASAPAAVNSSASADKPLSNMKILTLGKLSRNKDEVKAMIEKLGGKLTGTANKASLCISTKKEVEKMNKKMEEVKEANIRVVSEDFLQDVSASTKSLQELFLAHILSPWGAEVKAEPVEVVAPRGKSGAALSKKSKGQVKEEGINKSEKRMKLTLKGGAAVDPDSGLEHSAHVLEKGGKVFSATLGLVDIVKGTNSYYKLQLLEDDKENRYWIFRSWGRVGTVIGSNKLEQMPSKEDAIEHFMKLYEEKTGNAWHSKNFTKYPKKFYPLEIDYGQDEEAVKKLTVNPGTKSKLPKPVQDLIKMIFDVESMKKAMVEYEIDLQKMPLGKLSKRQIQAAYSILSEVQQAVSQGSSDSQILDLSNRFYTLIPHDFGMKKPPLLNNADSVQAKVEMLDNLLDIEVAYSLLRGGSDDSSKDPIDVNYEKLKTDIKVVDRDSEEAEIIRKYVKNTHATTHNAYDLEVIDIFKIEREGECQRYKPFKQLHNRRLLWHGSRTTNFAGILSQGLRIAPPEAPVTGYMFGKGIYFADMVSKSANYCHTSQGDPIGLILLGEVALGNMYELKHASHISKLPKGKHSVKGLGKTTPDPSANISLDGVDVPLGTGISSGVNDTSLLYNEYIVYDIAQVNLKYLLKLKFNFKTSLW

By EC50 is commonly meant the midpoint of the concentration-response curve. In experiment [1], `O=c1[nH]c2ccc(CN3CCCCC3)cc2n2cccc12` had an EC50 of 31 nM. In experiment [1], `O=c1[nH]c2cc(CN3CCCC3)ccc2n2cccc12` came in with an EC50 of 6 nM. By Ki is commonly meant a measure of affinity in units of concentration, obtained from inhibition or displacement. The low end stands for tighter binding, the high end for weaker binding. For `O=c1[nH]c2cc(CNCc3ccccc3)ccc2n2cccc12`, affinity in experiment [2] was put at a Ki of 161 nM. In experiment [1], this compound registered an EC50 of 164 nM.

As to `O=c1[nH]c2ccc(CNC3CC3)cc2n2cccc12`, in experiment [2], the inhibition constant (Ki) is 31 nM. The same compound registered an EC50 in experiment [1] of 25 nM.

Take `CN(C)Cc1ccc2c(c1)NC(=O)C1CCCN21` (stereo not drawn): the Ki in experiment [2] amounted to 190 nM. Further, the EC50 in experiment [1] is 646 nM.
